Measured values taken from article PMC3117942 (2011).

Target: T1, RARγ (Homo sapiens, UniProt P13631)
T1 sequence (P13631 185-419 limits assumed): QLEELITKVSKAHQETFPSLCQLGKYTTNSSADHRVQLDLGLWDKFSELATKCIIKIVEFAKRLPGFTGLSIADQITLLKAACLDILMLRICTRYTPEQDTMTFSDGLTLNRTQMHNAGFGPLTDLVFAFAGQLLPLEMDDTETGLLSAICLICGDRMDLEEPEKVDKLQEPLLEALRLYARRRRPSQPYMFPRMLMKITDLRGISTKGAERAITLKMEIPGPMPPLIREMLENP
Test: Gal4-RARγ-LBD UAS-luciferase reporter in HEK293T, activation at […]
Format: cell-based
Conditions: hek293t cells

## CC1=C(/C=C/C(C)=C/C=C/C(C)=C/C(=O)O)C(C)(C)CCC1 [ATRA, all-trans retinoic acid]
  Gal4-RARγ-LBD UAS-luciferase reporter in HEK293T, activation at 1 nM (2.1 fold): 2.1 fold
